Experimental data taken from patent US11365215B2, “Method for preventing, improving, or treating inflammatory bowel disease” (Research & Business Foundation Sungkyunkwan University, priority 2015, dated 2022).
Peptide text beside a SMILES is read from it.

Assays:
Type in all cases: cell-based
NF-κB = experiment: 5×NF-κB-Luc reporter luciferase assay in LPS-treated RAW 264.7 cells
Experimental: Specifically, 5×NF-κB-Luc reporter plasmid was transfected into RAW 264.7 cells using Effectene (Qiagen, USA). The transfected cells were pretreated with 100 nM of compound 1.1 (SEQ ID NO: 2) for 30 minutes, and further treated with LPS (100 ng/ml) for two hours, and luciferase activity in the cells was measured (FIG. 4 depicts a graph showing relative inhibition activities of compound 1.1 (SEQ ID NO: 2) and compound 1.2 to NF-κB activation). When the cells were treated with compound 1.1 (SEQ ID NO: 2) and compound 1.2 according to the present invention, activation of NF-κB, which was induced by LPS, was inhibited (FIG. 4).
In addition, 5×NF-κB-Luc reporter plasmid was transfected into RAW 264.7 macrophage cells and treated with compounds of the present invention, as described above. After 24 hours of the transfection, the cells were pretreated with DMSO (control), compound 1.1 (SEQ ID NO: 2), reference compound 1 (SEQ ID NO: 16) (compound where palmitic acid is removed from compound 1.1 (SEQ ID NO: 2)), and smaducin-6 were treated at various concentrations of 100 pM, 1 nM, and 100 nM for 30 minutes, and then the cells were treated with 100 ng/ml of LPS for two hours.
Specifically, 5×NF-κB-Luc reporter plasmid, SBE-Luc reporter plasmid, and BRE-Luc reporter plasmid were individually transfected into Raw 264.7 macrophage cells. After 24 hours, the cells transfected with the NF-κB-Luc reporter plasmid were treated with 100 ng/mL of LPS, the cells transfected with the SBE-Luc reporter plasmid were treated with 5 ng/mL of TFG-β1, and the cells transfected with the BRE-Luc reporter plasmid were treated with 100 ng/mL of BMP6 for two hours.
As described in Example 2.3, 5×NF-κB-Luc reporter plasmid was transfected into RAW 246.7 macrophage cells. After 24 hours, the cells transfected with NF-κB-Luc reporter plasmid were pretreated with compound 1.1 (SEQ ID NO: 2) (100 nM), interleukin-1-receptor-associated-kinase-1/4 inhibitor (IRAK1/4) inhibitor (25 μM, CAS 509093-47-4), and smaducin-6 (100 nM) for 30 minutes, and then further treated with LPS (100 ng/ml) for 2 hours. Subsequently, luciferase activities in the cells were measured.

[1] = system: MAPK signaling pathway proteins (ERK1/2, JNK, p38); experiment: Western blot of MAPK signaling pathway protein phosphorylation in LPS-treated RAW 246.7 cells; conditions: for phosphorylation of the MAPK signaling pathway proteins (ERK1/2, JNK, p38): 100 nM for 30 minutes, LPS 0, 0.5, 1 and 2 hours
Experimental: RAW 246.7 macrophage cells were pretreated with compound 1.1 (SEQ ID NO: 2), compound 1.2 and reference compound 1 (SEQ ID NO: 16) at a concentration of 100 nM for 30 minutes and then further treated with LPS for 0 hour, 0.5 hour, 1 hour and 2 hours. […] Changes of the concentration upon phosphorylation of each protein were measured by immunoblotting using anti-phosphorylation antibodies.
Specifically, RAW 246.7 macrophage cells were pretreated with DMSO, compound 1.1 (SEQ ID NO: 2) (100 nM), IRAK1/4 inhibitor (25 μM), and smaducin-6 (100 nM) for 30 minutes, and then further treated with LPS (100 ng/ml) for two hours.

AP-1 = experiment: AP-1-Luc reporter luciferase assay in LPS-treated RAW 246.7 cells; conditions: 25 μM for 30 minutes, LPS 100 ng/ml 2 hours
Experimental: RAW 246.7 macrophage cells were transfected with AP-1-Luc reporter plasmid as described in Example 2.3. After 24 hours, the transfected cells with AP-1-Luc reporter plasmid were pretreated with compound 1.1 (SEQ ID NO: 2) (100 nM), IRAK1/4 inhibitor (25 μM), and smaducin-6 (100 nM) for 30 minutes, and then further treated with LPS (100 ng/ml) for 2 hours.

interleukin-6 = experiment: Suppression of LPS-induced IL-6 expression in RAW 264.7 macrophage cells (RT-PCR, Real-Time PCR); conditions: pretreated 100 nM for 30 min, LPS two hours, compared to untreated sample
Experimental: First, RAW 264.7 macrophage cells were purchased from American Type Culture Collection (ATCC; Manassas, Va.), and were culture at a temperature of 37° C., under 5% CO2 atmosphere, using 10% Fetal Bovine Serum (FBS) and Dulbecco's Modified Eagle's Medium (DMEM) containing 1% penicillin/streptomycin.
The cultured RAW 264.7 macrophage cells were divided into a 6-well cell culture plate. After 24 hours, the cells were pretreated with compound 1.1 (SEQ ID NO: 2), compound 1.2, and smaducin-6, respectively, in a concentration of 100 nM for 30 min, and further treated with lipopolysaccharides (LPS) for two hours. These cells were collected using TRIzol® and the RNA was extracted. From 2 μg of the extracted RNA, cDNAs (complementary deoxyribonucleic acids) were synthesized and reverse transcription polymerase chain reactions (RT-PCR) and real-time polymerase chain reactions (Real-Time PCR) were performed. Samples from the RT-PCR were confirmed by electrophoresis on agarose gels and quantified using densitometer. A glyceraldehyde 3-phosphate dehydrogenase (GAPDH) gene was used as a loading control for the interleukin-6 gene.
RAW 264.7 macrophage cells were treated with varying concentrations of compound 1.1 (SEQ ID NO: 2) from 50 pM to 500 nM for 30 minutes, and treated with 100 ng/mL of LPS for two hours.

[2] = system: inflammatory signaling pathway protein complex mediated by MyD88 or RIP1; experiment: Immunoprecipitation of inflammatory signaling pathway protein complex in LPS-treated RAW264.7 cells; conditions: pretreated, then LPS
Excerpt: Specifically, using antibodies corresponding to proteins which relate to the formation of Toll-like receptors (TLRs) signaling pathway protein complex (for example, IRAK1, TRAF6, MyD88, RIP1 and Pellino-1), disruption of the formation of inflammatory signaling pathway protein complexes was affirmed by immunoprecipitation. As reference control, a relative amount of expression of β-actin from the total cell lysate was compared and presented using Western blot.
RAW264.7 macrophage cells were individually retreated with compound 1.1 (SEQ ID NO: 2) and compound 1.2, and smaducin-6, and further treated with LPS. These RAW264.7 macrophage cells were collected, lysed in a lysis butter (PBS containing 0.5% Triton X-100, 20 mM HEPES (pH 7.4), 150 mM NaCl, 12.5 mM β-glycerol phosphate, 1.5 mM MgCl2, 10 mM NaF, 2 mM DTT, 1 mM Na3O4V, 2 mM EGTA, and 1 mM Protease Inhibitor (PMSF)), and centrifuged at 13000 rpm for 10 minutes. For immunoprecipitation assays, the supernatant was incubated at 4° C. for 12 hours, with protein-A agarose beads and the antibodies corresponding to the above proteins, and the beads were subsequently washed three times with the lysis buffer. The immunoprecipitated substances were dissociated from the beads with addition of 2× sample buffer, and were boiled. The prepared samples were loaded on SDS-polyacrylamide gel (FIG. 7).

[3] = molecular target: T1, inflammatory signaling pathway complex mediated by MyD88 and RIP1 (Mus musculus, UniProt P22366+Q60855); experiment: Immunoprecipitation/immunoblot of inflammatory signaling pathway complex in LPS-treated BMDM cells; conditions: 100 pM, 1 nM, 100 nM, then 100 ng/mL LPS
T1 construct: endogenous in cells; host or cells: bone-marrow-derived macrophage (BMDM) cells
Experimental: Bone-marrow-derived macrophage (BMDM) cells were individually pretreated with compound 1.1 (SEQ ID NO: 2), reference compound 1 (SEQ ID NO: 16), and smaducin-6 at various concentrations of 100 pM, 1 nM, and 100 nM, and then further treated with 100 ng/mL of LPS.

T1 sequence (P22366 whole entry): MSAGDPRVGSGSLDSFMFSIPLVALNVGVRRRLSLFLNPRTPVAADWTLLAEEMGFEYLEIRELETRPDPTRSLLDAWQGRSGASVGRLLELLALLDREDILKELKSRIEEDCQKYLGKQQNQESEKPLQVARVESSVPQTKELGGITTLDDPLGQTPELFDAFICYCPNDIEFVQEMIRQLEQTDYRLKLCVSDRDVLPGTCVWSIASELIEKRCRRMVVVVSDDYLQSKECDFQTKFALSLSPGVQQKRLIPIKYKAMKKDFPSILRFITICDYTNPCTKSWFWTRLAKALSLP
T1 sequence (Q60855 whole entry): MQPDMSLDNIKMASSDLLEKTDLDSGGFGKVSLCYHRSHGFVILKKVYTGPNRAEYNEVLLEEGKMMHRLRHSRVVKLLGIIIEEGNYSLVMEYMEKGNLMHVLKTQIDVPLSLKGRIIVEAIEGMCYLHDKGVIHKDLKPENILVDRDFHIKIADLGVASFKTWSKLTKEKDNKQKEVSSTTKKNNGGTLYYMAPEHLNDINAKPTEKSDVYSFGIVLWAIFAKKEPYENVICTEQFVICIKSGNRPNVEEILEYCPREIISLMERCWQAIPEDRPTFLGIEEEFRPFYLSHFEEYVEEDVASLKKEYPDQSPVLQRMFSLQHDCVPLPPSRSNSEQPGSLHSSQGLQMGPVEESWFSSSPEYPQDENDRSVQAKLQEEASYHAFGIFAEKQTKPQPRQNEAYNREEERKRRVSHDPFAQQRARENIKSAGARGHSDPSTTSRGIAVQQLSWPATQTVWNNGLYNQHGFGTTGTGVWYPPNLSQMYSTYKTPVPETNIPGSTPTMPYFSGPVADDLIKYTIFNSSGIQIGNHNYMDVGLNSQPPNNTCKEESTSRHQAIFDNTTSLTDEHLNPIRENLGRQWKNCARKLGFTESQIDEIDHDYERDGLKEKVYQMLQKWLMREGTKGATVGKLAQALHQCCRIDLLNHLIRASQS

Row | Molecule | NF-κB activation (luciferase activity) (NF-κB; 25 μM for 30 minutes, LPS 100 ng/ml 2 hours) | MAPK signaling pathway / phosphorylation of ERK, JNK, p38 ([1]; 25 μM for 30 minutes, LPS 100 ng/ml two hours) | AP-1-Luc luciferase activity (MAPK signaling pathway) (AP-1) | expression of interleukin-6 induced by LPS treatment (interleukin-6) | activation of NF-κB induced by LPS (luciferase activity) (NF-κB; 100 nM for 30 minutes, LPS 100 ng/ml two hours) | formation of inflammatory signaling pathway protein complex mediated by MyD88 or RIP1 [2] | phosphorylation of the MAPK signaling pathway proteins (ERK1/2, JNK, p38) [1] | inhibition of the activity of NF-κB induced by LPS, dose dependence (NF-κB; 100 pM, 1 nM, 100 nM for 30 minutes, LPS 100 ng/ml two hours) | formation of inflammatory signaling pathway complex mediated by MyD88 and RIP1 [3]
1 | O=C(Nc1nc2ccccc2n1CCN1CCOCC1)c1cccc([N+](=O)[O-])c1 [IRAK1/4 inhibitor, reference compound] | inhibited | suppressed at least one or more of MAPK signaling pathways | inhibited MAPK signaling pathway |  |  |  |  |  | 
2 | CCCCCCCCCCCCCCCC(=O)N1CCC[C@H]1C(=O)NCC(=O)N[C@@H](Cc1ccc(O)cc1)C(=O)O [compound 1.2, (S)-3-(4-hydroxyphenyl)-2-(2-((S)-1-palmitoylpyrrolidine-2-carboxamido)acetamido)propanoic acid] (HELM PEPTIDE1{[CCCCCCCCCCCCCCCC(=O)[*:2]].P.G.Y}$$$$V2.0) |  |  |  | suppressed | inhibited | disrupted | did not inhibit phosphorylation |  | 
3 | reference compound 1: compound where palmitic acid is removed from compound 1.1 (SEQ ID NO: 2) (PPGY) [reference compound] |  |  |  |  |  |  | did not inhibit phosphorylation | not inhibited in dose dependent manner | formed the inflammatory signaling pathway complex
